Measured values: paper PMC7557804, “The Anti-Microbial Peptide (Lin-SB056-1)2-K Reduces Pro-Inflammatory Cytokine Release through Interaction with Pseudomonas aeruginosa Lipopolysaccharide” (Antibiotics, 2020)
“Also recorded” adds a separate entry of the source.

Key:
[1] = in vitro; cited from earlier work
From the text: While the anti-microbial activities of AMPs are becoming increasingly understood, the mechanisms underlying their anti-inflammatory effect still need to be fully elucidated. Nevertheless, the anti-inflammatory mode of action of many peptides has been attributed to their ability to efficiently bind LPS and/or block LPS recognition by effector cells. […] Analogous LPS-ne ... || It is generally thought that the dendrimeric architecture leads to improved biological activity due to a higher local concentration of the active sequence. Possibly, thanks to its conformational plasticity, the dendrimeric organization might maximize target binding (e.g., LPS) through electrostatic interactions, leading to greater biological effects. Nevertheless, we cannot exclude a role of stability on the ability of dendrimeric peptides to establish solid interactions with LPS under specific experimental conditions. For instance, the stronger LPS-binding affinity of (lin-SB056-1 ...

sepsis in animal models = details: by sequestering soluble LPS; cited from earlier work
From the text: While the anti-microbial activities of AMPs are becoming increasingly understood, the mechanisms underlying their anti-inflammatory effect still need to be fully elucidated. Nevertheless, the anti-inflammatory mode of action of many peptides has been attributed to their ability to efficiently bind LPS and/or block LPS recognition by effector cells. […] Analogous LPS-ne ...

THP-1 macrophages = assay: Cytotoxicity (LDH release) towards THP-1 macrophages; assay type: cell-based, Human; details: LPS-stimulated THP-1 macrophages, 4 h
Method: (§1) Human non-small-cell lung adenocarcinoma A549 cells (ATCC CCL-185; LGC Standards, Milan, Italy) and human monocytic THP-1 cells (ATCC TIB-202; LGC Standards) were cultured in tissue culture flasks in Dulbecco’s modified essential medium (DMEM) (Euroclone, Milan, Italy) and RPMI 1640 medium (Euroclone), respectively. Both media were supplemented with 2 mM L-glutamine (Euroclone) and 10% heat-inactivated fetal bovine serum (FBS; Euroclone). Confluent monolayers were detached from the culture flask with 0.25% trypsin/1 mM EDTA solution (Euroclone), suspended in complete culture medium and seeded into flat-bottom 96-well plates at a final density of 1 × 10^4 cells/well (A549) and 2 × 10^4 cells/well (THP-1). A549 cells were cultured for 24 h at 37 °C, 5% CO2 in order to allow adhesion and formation of semi-confluent monolayers. THP-1 cells were cultured for 3 days (37 °C, 5% CO2) in the presence of 100 nM TPA (Sigma-Aldrich, St. Louis, MO, USA) to induce their differentiation into macrophage-like cells.
(§2) The cytotoxicity of lin-SB056-1 and (lin-SB056-1)2-K towards A549 and THP-1 cells was evaluated to exclude a possible correlation between reduction in cytokine levels and decrease in cell numbers. To this end, culture supernatants of cells stimulated with LPS in the presence of the peptides were employed to quantify the amount of cytoplasmic LDH released by dead cells. Cells incubated in culture medium alone or in the presence of LPS served as an indication of spontaneous cell death (cell viability controls), while cells treated with a commercial lysis buffer (Pierce LDH cytotoxicity assay kit, Thermo Fisher Scientific) were used as cell death control (100% cell lysis). The enzymatic activity of LDH in cell supernatants was measured using the Pierce LDH cytotoxicity assay kit (Thermo Fisher Scientific) following manufacturer’s instructions. The cytotoxic effect was determined as follows: cytotoxicity (%) = [(LDH activity of A/LDH activity of B) × 100], where A represents peptide-treated or untreated cells (both in the presence and absence of LPS), and B corresponds to the cell lysis control.

P. aeruginosa = details: previous studies; cited from earlier work
From the text: (§3) The global issue of anti-microbial resistance coupled with the lack of new treatments for bacterial infections has stimulated interest in the use of AMPs for therapeutic purposes. Due to their unique mechanism(s) of action and wide spectrum of biological activities, AMPs are emerging as a promising alternative to conventional anti-microbial agents for the management of antibiotic-resistant and biofilm-associated infections. Although mainly intended for topical use due to potential toxicity and reduced stability under physiological conditions, many different peptides with anti-micro ...

mammalian cells = details: cited from earlier work
From the text: as §3

[2] = LAL assay, LPS neutralization; assay type: biochemical, Escherichia coli; details: 2.4 to 19.25 μM peptide; E. coli 011:B4 LPS 2 EU/mL; 30 min, 37 °C
Method: The ability of lin-SB056-1 and (lin-SB056-1)2-K to neutralize the activity of LPS was analyzed using a standardized LAL assay (Pierce LAL chromogenic endotoxin quantitation kit; Thermo Fisher Scientific). Peptides at different concentrations (2.4 to 19.25 μM) were pre-incubated with E. coli 011:B4 LPS (2 Endotoxin Units (EU)/mL; EU = unit of measurement for endotoxin activity) for 30 min (37 °C, shaking) in order to promote the interaction between the two molecules. LPS alone was used as positive control. Following incubation, peptide-treated and untreated samples were mixed with the LAL reagent (1:1 ratio) and incubated for 10 min at 37 °C. Subsequently, 100 μL of the chromogenic substrate were added and incubated with the samples for 6 min. The reaction was terminated by adding 100 μL of acetic acid (25% v/v), and absorbance was measured at 405 nm ([…]) using a microplate reader (Multiscan FC, Life Technologies Italia, Monza, Italy). The amount of peptide-sequestered LPS was determined as follows: LPS neutralization (%) = [100 − (ODpeptide/ODpositive control × 100)].

A549 cells [3] = assay: LPS-induced cytokine production by A549 cells (bead-based multiplex immunoassay); assay type: cell-based, Human; details: LPS 800 ng/mL, 4 h, 37 °C, peptide 4.8 to 19.25 μM
Method: as §1
The anti-inflammatory potential of lin-SB056-1 and (lin-SB056-1)2-K was assessed by evaluating their ability to reduce LPS-induced production of pro-inflammatory cytokines by A549 cells and THP-1 macrophages. In order to ensure cytokine production, cell monolayers were stimulated with LPS from P. aeruginosa serotype 10 (purified by phenol extraction; Sigma-Aldrich, Milano, Italy) at a final concentration of 10 ng/mL (THP-1) and 800 ng/mL (A549). LPS concentrations used in the experiments were chosen based on preliminary assays aimed at identifying the minimum dose of the molecule able to stimulate cytokine production after 4 h of exposure. In order to assess the inhibitory activity of peptides on cytokine production, cell monolayers were incubated in complete culture medium in the presence of LPS and different concentrations of lin-SB056-1 and (lin-SB056-1)2-K (4.8 to 19.25 μM) for 4 h (37 °C, 5% CO2). Cells incubated in the presence of LPS alone were used as positive (cytokine production) control. Following incubation, cell culture supernatants were collected, filter sterilized (0.22 µm) and employed for the quantification of cytokines and the assessment of cell viability.
Different pro-inflammatory cytokines (i.e., IL-1β, IL-6, IL-8 and TNF-α) were quantified in cell culture supernatants through a bead-based multiplex immunoassay (LEGENDplex multi-analyte flow assay kit; BioLegend, San Diego, CA, USA) following manufacturer’s instructions. Briefly, 25 μL of cytokine standard or cell supernatant were incubated with 25 μL of anti-cytokine conjugated beads into V-bottom 96-well plates for 2 h. Following incubation, the plates were washed and subsequently incubated with the detection antibody (25 μL/well) for 1 h. A volume of 25 μL of streptavidin-phycoerythrin was added to each well, and the plates were incubated for another 30 min in the dark. Following consecutive washing steps, the beads were resuspended in the LEGENDplex wash buffer and the samples were analyzed by flow cytometry (BD Accuri C6 flow cytometer; BD Biosciences, Mountain View, CA, United States). Data were acquired with the BD Accuri C6 software (BD Biosciences) (300 events per analyte) and analyzed with the LEGENDplex software (BioLegend). Minimum detectable concentration (MDC+2STDEV) for the tested cytokines were as follows: IL-1β, 0.65 + 0.47 pg/mL; IL-6, 0.97 + 1.46 pg/mL; IL-8, 1.90 + 0.65 pg/mL; TNF-α, 0.88 + 0.27 pg/mL.

[4] = BODIPY TR cadaverine (BC) fluorescent displacement assay, LPS binding; design: species or system P. aeruginosa; details: P. aeruginosa serotype 10 LPS 10 µg/mL, BC 10 µM; 50 mM Tris-HCl, pH 7.4; 25 °C; excitation 580 nm, emission 620 nm; mean of three independent experiments, SD not exceeding 5%
Method: Measurement of the ability of lin-SB056-1 and its dendrimeric derivative to bind P. aeruginosa serotype 10 LPS (Sigma-Aldrich) in vitro was performed by a fluorescent displacement assay using the BODIPY TR cadaverine (BC) probe (5-(((4-(4,4-difluoro-5-(2-thienyl)-4-bora-3a,4a-diaza-s-indacene-3-yl)phenoxy)acetyl)amino)pentylamine, hydrochloride); Thermo Fisher Scientific), as described elsewhere. BC binds to LPS by recognizing the lipid A portion and the probe fluorescence is quenched. When a peptide able to interact with LPS is added, BC is displaced from the complex and its fluorescence increases. LPS binding assays were carried out in 50 mM Tris-HCl buffer, pH 7.4. Aliquots of the peptides at a final concentration of 0.1 μM were successively added to a cuvette containing the LPS/BC complex (10 µg/mL P. aeruginosa LPS and 10 µM BC). Fluorescence measurements were performed with a Perkin-Elmer LS 55B spectrofluorometer (Perkin-Elmer, Waltham, MA, USA) using a thermostated (25 °C) cuvette apparatus (excitation: 580 nm; emission: 620 nm).

A549 cells [5] = assay: Cytotoxicity (LDH release) towards A549 cells; assay type: cell-based, Human; details: LPS-stimulated A549, 4 h
Method: as §1, §2

[6] = up to 19.25 μM (highest tested), 37 °C, 5% CO2, relative to cell lysis control, at least three independent experiments

| Substance | LPS-induced pro-inflammatory responses [1] | protection from sepsis (sepsis in animal models) | cell death (LDH release), with LPS (THP-1 macrophages; [6]) | toxicity (THP-1 macrophages; up to 19.25 μM, LDH release) | anti-microbial / anti-biofilm activity (P. aeruginosa) | cytotoxicity (mammalian cells) | LPS neutralization / LAL activity [2] | effect on IL-6 release (A549 cells [3]) | effect on IL-8 release (A549 cells [3]; lin-SB056-1 decrease at 19.25 μM (highest tested)) | ED50 (Effective Displacement; peptide concentration displacing half of the BC) [4] | cell death (LDH release), with LPS (A549 cells [5]; [6]) | toxicity (A549 cells [5]; up to 19.25 μM, LDH release) |
| --- | --- | --- | --- | --- | --- | --- | --- | --- | --- | --- | --- | --- |
| LL-37: well-known human cathelicidin LL-37 (LLGDFFRKSKEKIGKEFKRIVQRIKDFLRNLVPRTES; Antibacterial peptide LL-37; UniProt P49913 134-170, looked up) | suppress LPS-induced pro-inflammatory responses | protect from sepsis |  |  |  |  |  |  |  |  |  |  |
| KWKIRVRLSA-NH2 [lin-SB056-1, semi-synthetic peptide lin-SB056-1] |  |  | less than 5% | no detectable toxicity | effective against biofilms; also recorded: promising anti-microbial activity | low cytotoxicity | differently from lin-SB056-1 | only a decrease in IL-8 levels was recorded | decrease in IL-8 levels | ~1.75 µM | less than 5% | no detectable toxicity |
